Here are results for one compound from the NIST ThermoML archive (doi:10.1016/j.fluid.2007.06.017).

The conditions of this data set: Crystal; DTA.

± gives the expanded uncertainty stated by the source.

Take `CCCCCCCCCCCCCC[P+](CCCCCC)(CCCCCC)CCCCCC.O=S(=O)([N-]S(=O)(=O)C(F)(F)F)C(F)(F)F`: the Normal melting temperature is 33.00 ± 1 °C.
